In patent US7601687B2, “Mechanism for identifying drugs for the treatment of type II diabetes” (BioCrine AB, priority 2006, dated 2009):

Test system: rat insulin-I gene promoter
Experiment: On-line monitoring of insulin promoter-driven DsRed/GFP expression (prIns1.DsRed) in transfected HIT-T15 cells and islet cells
Assay type: cell-based, hamster (HIT-T15), rat (islet cells)
Details: for effect of inhibitor on insulin-stimulated insulin gene transcription / insulin promoter activity: 25 μM LY294002, 10 nM rapamycin, 400 nM AC, 100 μM HNMPA-(AM)3
Description: Construction of prIns1.GFP has been described earlier (Leibiger et al., 1998a). Vector prIns1.DsRed was generated by exchanging the EGFP-expression cassette versus the DsRed-expression cassette obtained from pDsRed1-1 (Clontech). Plasmid prβGK.GFP (i.e. prβGK-278.GFP) was generated by exchanging the CAT-SV40pA-expression cassette of prβGK-278.CAT (Leibiger et al., 1994a) versus the EGFP-bGHpA-expression cassette obtained from pRcCMVI.GFP (Moede et al., 1999). […] All vector constructions were verified by DNA sequence analysis. Constructs for expression of the human Insulin Receptor A and B types, pCMVHIR(A) and pCMVHIR(B) and the control plasmid pCMVstop were kindly provided by Dr. A. Ullrich (Max-Planck-Institute for Biochemistry, Martinsried, Germany). Expression constructs pCMV5.PKBα, pCMV5.PKBαΔ308/437, pCMV5.PDK1 and pCMV5.PDK1-antisense were kindly provided by Drs. P. Cohen and D. R. Alessi (MRC Phosphorylation Unit, University of Dundee, UK).
Insulin-producing HIT-T15 cells were obtained from ATCC. HIT cells were reported to show glucose responsiveness at subphysiological concentrations between 0.1 and 2 mM (Sharma et al., 1995). HIT cells were grown in RPMI 1640 medium supplemented with 100 units/ml penicillin, 100 μg/ml streptomycin, 2 mM glutamine and 10% fetal calf serum at 5% CO2 and 37° C. Pancreatic islets were isolated from normally fed male Wistar rats and from mice by collagenase digestion. Isolated islets were incubated overnight at 5% CO2 and 37° C. in RPMI 1640 medium, supplemented as described above. Transfection of HIT-T15 and islet cells was performed overnight by the lipofectamine technique in RPMI 1640 medium, without serum and antibiotics. For on-line monitoring, cells were grown and transfected on 24-mm glass coverslips. Following transfection, HIT cells were cultured for 12-18 h in RPMI 1640 medium containing 0.1 mM glucose, 10% fetal calf serum and supplemented as above. Before stimulation, islets and islet cells were incubated for 2 h in RPMI 1640 medium, supplemented as above but containing 3 mM glucose. All expression constructs were prepared using the Qiagen Plasmid Maxi Kit (Qiagen), except those used to produce the adenoviruses which where purified by ultracentrifugation via a CsCI-gradient (as described in Sambrook et al, 1989).
All experiments were performed in RPMI 1640 medium, supplemented as above. Protein kinase inhibitors, antibodies or nifedipine were added to the culture medium 30 min prior to stimulation and were kept in the medium throughout stimulation. After stimulation islets, islet cells and HIT cells were cultured further at substimulatory glucose concentrations (0.1 mM for HIT cells and 3 mM for islets and islet cells). For RNA-analysis, islets and cells were harvested 60 min after start of stimulation, if not indicated otherwise. For analysis of protein kinase activities or tyrosine phosphorylation, cells were harvested immediately following stimulation.
Detection of fluorescence by digital imaging fluorescence microscopy was performed as described previously (Leibiger et al., 1998a; Leibiger et al., 1998b). Briefly, transfected cells were grown on 24-mm glass coverslips. After stimulation the coverslips were placed into a perifusion chamber which was mounted on an inverted microscope (Zeiss Axiovert 135TV). Temperature was kept at 37° C. and the cells were perfused with RPMI 1640 medium. The objective lens used was a Zeiss-Fluar ×40/1.30 oil Imm Korr. Fluorescence imaging was performed with a cooled charged-coupled device camera (CH250 with KAF 1400, Photometrics, Tucson, Ariz.) connected to an imaging system (Inovision) with fluorescence excitation from a SPEX fluorolog-2 CM1T11I spectrofluorometer (Spex Industries). The following filter-settings were used: for GFPs65T: excitation at 485 nm, a 505 nm dicroic mirror and an emission band-pass filter of 500-530 nm; for DsRed: excitation at 558 nm, a 565 nm dicroic mirror and a 580 nm long-pass filter for emission […]

Row | Molecule | effect of inhibitor on insulin-stimulated insulin gene transcription / insulin promoter activity (5 mU/ml insulin) | insulin promoter-driven DsRed fluorescence upon insulin stimulation (5 mU/ml insulin, co-transfected cells) | amount of exogenous insulin necessary to trigger insulin gene promoter activity (transfected HIT-T15 cells, supplemented culture medium (FIG. 4B))
1 | CC(=O)OCOC(c1ccc2ccccc2c1)P(=O)(OCOC(C)=O)OCOC(C)=O (stereo not shown) [HNMPA-(AM)3] | abolished |  | 
2 | autocamtide-2 related inhibitory peptide | abolished |  | 
3 | insulin |  | elevation | 5-10 μU insulin per ml
